Test results: patent publication EP0937723A1, “Novel sulfonamides, process for their preparation and medicaments containing them” (Roche Diagnostics GmbH, priority 1998, dated 1999)
Where a name gives a salt, the structure may show the parent alone.

What was measured:
humanem Faktor Xa = biological target: T1, humanem Faktor Xa (Homo sapiens, UniProt P00742); experiment: Inhibition constant Ki, chromogenic substrate Chromozym X, photometric at 405 nm; assay type: biochemical; conditions: pH 7.5, 25°C, 0.1 M phosphate buffer, 0.2 M NaCl; read-out: Ki (fXa)
T1 construct: humanem Faktor Xa; purchased Boehringer Mannheim GmbH
T1 sequence (P00742 235-488 limits assumed): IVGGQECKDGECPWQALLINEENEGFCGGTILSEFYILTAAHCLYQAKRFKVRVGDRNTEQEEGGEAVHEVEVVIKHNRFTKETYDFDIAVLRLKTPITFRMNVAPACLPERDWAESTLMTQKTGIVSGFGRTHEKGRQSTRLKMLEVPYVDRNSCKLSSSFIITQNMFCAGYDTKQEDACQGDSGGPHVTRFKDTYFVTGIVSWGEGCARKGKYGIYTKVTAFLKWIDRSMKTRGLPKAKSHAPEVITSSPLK
T1 sequence (P00742 41-179 partner limits assumed): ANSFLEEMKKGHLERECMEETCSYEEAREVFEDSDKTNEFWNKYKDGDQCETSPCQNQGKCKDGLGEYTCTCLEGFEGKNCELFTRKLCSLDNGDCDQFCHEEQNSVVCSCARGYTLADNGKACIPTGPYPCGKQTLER
Experimental: (§1) Die kinetischen Messungen wurden in 0.2 M Kochsalz und 0.5 % Polyethylenglycol 6000 enthaltendem 0.1 M Phosphatpuffer (Herstellung siehe unten) bei pH 7.5 und 25°C in Polystyrol-Halbmikroküvetten in einem Gesamtvolumen von 1 ml durchgeführt . Die Reaktionen wurden durch Zugabe von Enzym zu vorinkubierten Lösungen, die entweder Dimethylsulfoxid (Kontrolle) oder Lösungen der Testsubstanz in DMSO (Inhibitor-Stocklösungen: 10 mM in DMSO) enthielten, gestartet. Die Zunahme der Extinktion bei 405 nm als Folge der Freisetzung von 4-Nitroanilin aus dem Substrat wurde photometrisch über einen Zeitraum von 12 Minuten verfolgt. Im Abstand von 20 Sekunden wurden Meßwerte (Extinktion vs. Zeit) ermittelt und diese Daten per Computer gespeichert.
(§2) Zur Bestimmung der Inhibitionskonstanten Ki wurde wie folgt vorgegangen: Die Geschwindigkeiten V0 (Extinktionsänderung pro Sekunde; Messungen ohne Inhibitor) und Vi (Extinktionsänderung pro Sekunde; Messungen mit Inhibitor) wurden durch lineare Regression bestimmt, wobei nur die Meßpunkte berücksichtigt wurden, bei der sich die Substratkonzentration um weniger als 15% verringerte. Aus einer Meßreihe (konstante Inhibitorkonzentration, variable Substratkonzentrationen) bestimmte man KM und VMAX durch nichtlinearen Fit auf die Gleichung V =(Vmax *[S])/([S]+KM) [formula] […]

Humanes α-Thrombin = biological target: T2, Humanes α-Thrombin (Homo sapiens, UniProt P00734); experiment: Inhibition constant Ki, chromogenic substrate S-2238, photometric at 405 nm; assay type: biochemical; conditions: pH 7.5, 25°C, 0.1 M phosphate buffer, 0.2 M NaCl
T2 construct: Humanes α-Thrombin; purchased Sigma
Experimental: as §1, §2

[1] = biological target: T3, bovines pankreatisches Trypsin (Bos taurus, UniProt P00760); experiment: as above; assay type: biochemical, bovin; conditions: pH 7.5, 25°C, 0.1 M phosphate buffer, 0.2 M NaCl
T3 construct: bovines pankreatisches Trypsin (Sigma); purchased Sigma; host or cells: bovine pancreas
T3 sequence (P00760 24-246): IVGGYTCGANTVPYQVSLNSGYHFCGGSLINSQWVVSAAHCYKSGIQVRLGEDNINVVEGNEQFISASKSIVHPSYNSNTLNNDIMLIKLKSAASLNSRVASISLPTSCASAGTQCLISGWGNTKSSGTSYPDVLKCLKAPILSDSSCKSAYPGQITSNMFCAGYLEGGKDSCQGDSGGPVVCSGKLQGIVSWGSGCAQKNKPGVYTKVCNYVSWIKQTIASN
Experimental: as §1, §2

Citratplasma = experiment: Activated partial thromboplastin time (APTT) in citrated plasma, ball coagulometer; assay type: biochemical; conditions: time as difference to control (control ca. 28-35 s)
Experimental: (§3) Neun Teile frisches Blut gesunder Spender werden mit einem Teil Natriumcitratlösung (0.11 Mol/l) gemischt und bei ca. 3000 U/min 10 Minuten bei Raumtemperatur zentrifügiert. Das Plasma wird abpipettiert und kann bei Raumtemperatur ca. 8 h aufbewahrt werden.
100 µl Citratplasma und 100 µl APTT-Reagenz (Diagnostica Stago / Boehringer Mannheim GmbH; enthält Lyophilisat Cephalin mit mikrokristallinem Kieselguraktivator) werden zusammen mit 10 µl Dimethylsulfoxid (DMSO) oder 10 µl einer Lösung der Wirksubstanz in DMSO in einem Kugelkoagulometer (KC10 der Fa. Amelung) 3 Minuten bei 37°C inkubiert. Mit Zugabe von 100 µl 0.025 M Calciumchlorid-Lösung wird eine Stoppuhr gestartet und der Zeitpunkt bis zum Eintritt der Gerinnung bestimmt. Die APTT beträgt bei den Kontrollmessungen ca. 28 -35 Sekunden und wird durch Wirksubstanzen verlängert. Sofern bei den Messungen nach 5 Minuten keine Gerinnung eintrat, wurde der Versuch gestoppt (>300).
In Tabelle 1 sind die gemessenen APTT-Zeiten in Sekunden als Differenz zur Kontrolle angegeben. Die Konzentrationen der Wirksubstanzen betrugen im Endvolumen 1000 µM (APTT 1000), 100 µM (APTT 100), 10 µM (APTT 10), 1 µM (APTT 1).

Pferdethrombin = experiment: Thrombin time in citrated plasma with thrombin reagent, ball coagulometer; assay type: biochemical, Pferd; conditions: 500 µM final concentration; time as difference to control (control ca. 24 s)
Experimental: as §3
200 µl Citratplasma werden in einem Kugelkoagulometer (KC10 der Fa. Amelung) 2 Minuten bei 37°C inkubiert. Zu 190 µl vortemperiertem Thrombin-Reagenz (Boehringer Mannheim GmbH; enthält ca. 3 U/ml Pferdethrombin und 0.0125 M Ca^++ gibt man 10 µl Dimethylsulfoxid (DMSO) oder eine Lösung der Wirksubstanz in DMSO. Mit Zugabe dieser 200 µl Lösung zum Plasma wird eine Stoppuhr gestartet und der Zeitpunkt bis zum Eintritt der Gerinnung bestimmt. Die Thrombinzeit beträgt bei den Kontrollmessungen ca. 24 Sekunden und wird durch Wirksubstanzen verlängert. Sofern bei den Messungen nach 5 Minuten keine Gerinnung eintrat, wurde der Versuch gestoppt (>300).
In Tabelle 1 sind die gemessenen Thrombinzeiten in Sekunden als Differenz zur Kontrolle angegeben. Die Konzentrationen der Wirksubstanzen betrugen im Endvolumen 500 µM (TT 500).

SMILES: N=C(N)N1CCC(Oc2ccc(S(=O)(=O)Nc3ccc4c(c3)CN(C(=N)N)CC4)cc2)CC1 [Beispiel 1, 7-[4-(1-Carbamimidoyl-piperidin-4-yloxy)-benzolsulfonylamino]-3,4-dihydro-1H-isochinolin-2-carboxamidin-dihydrochlorid]
- Ki (humanem Faktor Xa): 10 nM
- Ki (Humanes α-Thrombin): 2000 nM
- Ki [1]: 100 nM
- APTT 1 (Citratplasma; 1 µM final concentration): 12 Sekunden
- APTT 10 (Citratplasma; 10 µM final concentration): 50 Sekunden
- APTT 100 (Citratplasma; 100 µM final concentration): 140 Sekunden
- APTT 1000 (Citratplasma; 1000 µM final concentration, test stopped after 5 min (>300)): > 300 Sekunden
- TT 500 (Pferdethrombin): 40 Sekunden
